Measurements as given in PubChem BioAssay AID248 (DTP/NCI, 2004).
“And” between values parts separate entries of the source, which are not always exact repeats. Equal values may be shown once. Inconclusive results and toxic doses are left out. No stated cut-off is given here; in the data, active means T/C of 150% or more; inactive means T/C below 125%.

Tested on: L1210 leukemia ip in BDF1 mice, survival T/C
Test: NCI In Vivo Anticancer Drug Screen. Data for tumor model L1210 Leukemia (intraperitoneal) in B6D2F1 (BDF1) mice
Conditions: endpoint: mean survival time, higher = longer survival
Summary of the method: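 Value reflects the ratio of survival in compound-treated mice to survival in vehicle-treated controls, with both groups carrying the same transplanted tumor.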

[1] = dose: 100.0 mg/kg/injection, schedule: Q01DX009 (ip), vehicle: Klucel (hydroxypropylcellulose) (HPC)
[2] = dose: 200.0 mg/kg/injection, schedule: Q01DX009 (ip), vehicle: Klucel (hydroxypropylcellulose) (HPC)
[3] = dose: 400.0 mg/kg/injection, schedule: Q01DX009 (ip), vehicle: Klucel (hydroxypropylcellulose) (HPC)
[4] = dose: 100.0 mg/kg/injection, schedule: Q01DX001 (ip), vehicle: saline
[5] = dose: 200.0 mg/kg/injection, schedule: Q01DX001 (ip), vehicle: saline
[6] = dose: 400.0 mg/kg/injection, schedule: Q01DX001 (ip), vehicle: saline
[7] = dose: 100.0 mg/kg/injection, schedule: Q04DX003 (ip), vehicle: Klucel (hydroxypropylcellulose) (HPC)
[8] = dose: 200.0 mg/kg/injection, schedule: Q04DX003 (ip), vehicle: Klucel (hydroxypropylcellulose) (HPC)
[9] = dose: 400.0 mg/kg/injection, schedule: Q04DX003 (ip), vehicle: Klucel (hydroxypropylcellulose) (HPC)
[10] = dose: 100.0 mg/kg/injection, schedule: Q01DX009 (ip), vehicle: saline with Tween-80
[11] = dose: 100.0 mg/kg/injection, schedule: Q04DX003 (ip), vehicle: saline with Tween-80
[12] = dose: 200.0 mg/kg/injection, schedule: Q01DX009 (ip), vehicle: saline with Tween-80
[13] = dose: 200.0 mg/kg/injection, schedule: Q04DX003 (ip), vehicle: saline with Tween-80
[14] = dose: 400.0 mg/kg/injection, schedule: Q01DX009 (ip), vehicle: saline with Tween-80
[15] = dose: 400.0 mg/kg/injection, schedule: Q04DX003 (ip), vehicle: saline with Tween-80
[16] = dose: 100.0 mg/kg/injection, schedule: Q04DX002 (ip), vehicle: saline
[17] = dose: 200.0 mg/kg/injection, schedule: Q04DX002 (ip), vehicle: saline
[18] = dose: 400.0 mg/kg/injection, schedule: Q04DX002 (ip), vehicle: saline
[19] = dose: 100.0 mg/kg/injection, schedule: Q01DX001 (ip), vehicle: carboxymethylcellulose (CMC)
[20] = dose: 400.0 mg/kg/injection, schedule: Q01DX001 (ip), vehicle: carboxymethylcellulose (CMC)
[21] = dose: 100.0 mg/kg/injection, schedule: Q04DX002 (ip), vehicle: saline with Tween-80
[22] = dose: 200.0 mg/kg/injection, schedule: Q04DX002 (ip), vehicle: saline with Tween-80
[23] = dose: 400.0 mg/kg/injection, schedule: Q04DX002 (ip), vehicle: saline with Tween-80
[24] = dose: 50.0 mg/kg/injection, schedule: Q04DX003 (ip), vehicle: Klucel (hydroxypropylcellulose) (HPC)

Measured: T/C

CCc1ccccc1NC(=O)Nc1ccc(C(=O)O)c(O)c1
inactive: [1] 95 % of control | dose: 100.0 mg/kg/injection, schedule: Q04DX002 (ip), vehicle: Klucel (hydroxypropylcellulose) (HPC) 98 % of control | [2] 101 % of control | dose: 200.0 mg/kg/injection, schedule: Q04DX002 (ip), vehicle: Klucel (hydroxypropylcellulose) (HPC) 102 % of control | [3] 108 % of control | dose: 400.0 mg/kg/injection, schedule: Q04DX002 (ip), vehicle: Klucel (hydroxypropylcellulose) (HPC) 102 % of control

NCCCN1CCCC1=O
inactive: [4] 98 % of control | [5] 101 % of control | [6] 98 % of control

CSc1ccc(/C=N/NC(N)=S)cc1
inactive: [1] 103 % of control | [7] 106 % of control | [2] 92 % of control | [8] 106 % of control | [9] 108 % of control

CCC(=O)CCC1CCCCC1
inactive: [4] 94 % of control | [5] 100 % of control | [6] 91 % of control

Cc1ccccc1C(c1ccccc1C)c1ccccc1C(=O)O
inactive: [10] 103 % of control | [11] 105 % of control | [12] 100 % of control | [13] 93 % of control | [14] 97 % of control | [15] 98 % of control

Cc1cnc(SCc2ccc(Cl)cc2)nc1N(C)C
inactive: dose: 25.0 mg/kg/injection, schedule: Q01DX Z (ip), vehicle: methylcellulose (MC) 90 % of control | dose: 50.0 mg/kg/injection, schedule: Q01DX Z (ip), vehicle: methylcellulose (MC) 100 % of control

CSc1nc(N(C)C)c2[nH]c(C)nc2n1
inactive: [4] 87 % of control | [5] 101 % of control

CCOC(=O)/C(=C/c1ccc(OC)cc1)P(=O)(OCC)OCC
inactive: dose: 50.0 mg/kg/injection, schedule: Q01DX001 (ip), vehicle: saline 91 % of control | [4] 91 % of control | [5] 103 % of control | [6] 95 % of control

CC(=O)OCC1OC(n2ncc3c(=S)nc[nH]c32)C(OC(C)=O)C1OC(C)=O (configuration not stated)
inactive: dose: 12.5 mg/kg/injection, schedule: Q01DX005 (ip), vehicle: other 98 % of control | dose: 25.0 mg/kg/injection, schedule: Q01DX005 (ip), vehicle: other 95 % of control | dose: 50.0 mg/kg/injection, schedule: Q01DX005 (ip), vehicle: other 104 % of control | dose: 100.0 mg/kg/injection, schedule: Q01DX005 (ip), vehicle: other 97 % of control | dose: 200.0 mg/kg/injection, schedule: Q01DX005 (ip), vehicle: other 93 % of control

CCCCCCCCC(=O)N1CCCC(C)C1 (configuration not stated)
inactive: [16] 104 % of control | [17] 117 % of control | [18] 101 % of control

CCOC(=O)C1CCCC23CC(CC12)C(C)(C)C3Br (configuration not stated)
inactive: [1] 100 % of control | [7] 94 % of control | [2] 94 % of control | [8] 95 % of control | [3] 94 % of control | [9] 103 % of control

C=CCNC(=S)Nc1cccc(O)c1
inactive: [1] 95 % of control | [2] 104 % of control | [3] 107 % of control

CCNc1ccccc1-c1nc2ccccc2[nH]1
inactive: dose: 50.0 mg/kg/injection, schedule: Q01DX009 (ip), vehicle: Klucel (hydroxypropylcellulose) (HPC) 93 % of control | [1] 100 % of control | [2] 102 % of control

O=C(Nc1cccc2ccccc12)OCCCl
inactive: [19] 93 % of control | dose: 200.0 mg/kg/injection, schedule: Q01DX001 (ip), vehicle: carboxymethylcellulose (CMC) 90 % of control | [20] 95 % of control

Cc1cc(-c2ccc(NC(=O)N(C)C)c(C)c2)ccc1NC(=O)N(C)C
inactive: [21] 100 % of control | [22] 114 % of control | [23] 96 % of control

CCCCCCC(=O)N(CC)CC
inactive: [16] 94 % of control | [17] 98 % of control | [18] 91 % of control

O=C(Nc1cccc([N+](=O)[O-])c1)Oc1ccc(-c2ccccc2)cc1
inactive: [10] 101 % of control and 103 % of control | [21] 97 % of control and 111 % of control | [11] 93 % of control | [12] 100 % of control and 101 % of control | [22] 96 % of control and 104 % of control | [13] 93 % of control | [14] 94 % of control | [23] 93 % of control and 103 % of control | [15] 102 % of control

O=C(CCCCC(=O)Nc1cc(C(=O)Nc2ccc(C3=NCCN3)cc2)ccc1C(=O)Nc1ccc(C2=NCCN2)cc1)Nc1cc(C(=O)Nc2ccc(C3=NCCN3)cc2)ccc1C(=O)Nc1ccc(C2=NCCN2)cc1
inactive: dose: 1.25 mg/kg/injection, schedule: Q01DX Z (ip), vehicle: saline 90 % of control | dose: 2.5 mg/kg/injection, schedule: Q01DX Z (ip), vehicle: saline 95 % of control | dose: 5.0 mg/kg/injection, schedule: Q01DX Z (ip), vehicle: saline 88 % of control | dose: 10.0 mg/kg/injection, schedule: Q01DX Z (ip), vehicle: saline 101 % of control | dose: 15.0 mg/kg/injection, schedule: Q01DX Z (ip), vehicle: methylcellulose (MC) 103 % of control | dose: 30.0 mg/kg/injection, schedule: Q01DX Z (ip), vehicle: methylcellulose (MC) 110 % of control

Cc1ccc(NC(=O)Nc2ccccc2C(N)=O)cc1
inactive: dose: 100.0 mg/kg/injection, schedule: Q04DX003 (ip), vehicle: saline sonified 92 % of control | dose: 200.0 mg/kg/injection, schedule: Q04DX003 (ip), vehicle: saline sonified 92 % of control | dose: 400.0 mg/kg/injection, schedule: Q04DX003 (ip), vehicle: saline sonified 89 % of control

COC(=O)CCC(=O)c1cccc(C)c1
inactive: [11] 88 % of control | [13] 99 % of control | [15] 94 % of control

Nc1nc(N)c(-c2cccc(Cl)c2)c(CBr)n1
inactive: dose: 12.5 mg/kg/injection, schedule: Q01DX009 (ip), vehicle: saline 101 % of control | dose: 25.0 mg/kg/injection, schedule: Q01DX009 (ip), vehicle: saline 102 % of control | dose: 50.0 mg/kg/injection, schedule: Q01DX009 (ip), vehicle: saline 104 % of control

COc1ccccc1NC1=C(NC(C)=O)C(=O)c2ccccc2C1=O
inactive: [11] 95 % of control | [13] 95 % of control | [15] 97 % of control

CS(=O)Cc1cccc2ccccc12 (configuration not stated)
inactive: [24] 117 % of control | dose: 100.0 mg/kg/injection, schedule: Q01DX001 (ip), vehicle: Klucel (hydroxypropylcellulose) (HPC) 98 % of control | [7] 104 % of control | dose: 200.0 mg/kg/injection, schedule: Q01DX001 (ip), vehicle: Klucel (hydroxypropylcellulose) (HPC) 116 % of control | [8] 96 % of control

CCC1=CC(=O)C(C)=C(C)C1=O
inactive: dose: 25.0 mg/kg/injection, schedule: Q04DX003 (ip), vehicle: other 100 % of control | dose: 50.0 mg/kg/injection, schedule: Q04DX003 (ip), vehicle: other 102 % of control | dose: 100.0 mg/kg/injection, schedule: Q04DX003 (ip), vehicle: other 97 % of control and 102 % of control

N#CC1(Nc2ccc(-c3ccc(NC4(C#N)CCCC4)cc3)cc2)CCCC1
inactive: dose: 50.0 mg/kg/injection, schedule: Q01DX001 (ip), vehicle: carboxymethylcellulose (CMC) 90 % of control | [19] 95 % of control | [20] 88 % of control

O=C(NC(CSC(c1ccc(Cl)cc1)c1ccc(Cl)cc1)C(=O)O)OCc1ccccc1 (configuration not stated)
inactive: dose: 25.0 mg/kg/injection, schedule: Q04DX003 (ip), vehicle: Klucel (hydroxypropylcellulose) (HPC) 102 % of control | [24] 91 % of control | [7] 97 % of control

O=C(Nc1cccc(C(F)(F)F)c1)C(c1ccccc1)c1ccccc1
inactive: [24] 98 % of control | [1] 100 % of control | [7] 110 % of control | [2] 100 % of control | [8] 93 % of control | [9] 101 % of control
